According to patent US12139508B2, “Steroid derivative regulators, method for preparing the same, and uses thereof” (JIANGSU HANSOH PHARMACEUTICAL GROUP CO., LTD., priority 2018, dated 2024):
Like-named read-outs stand apart in the source and are kept apart here.

How the values were obtained:
[1] = Pharmacokinetic assay in Balb/c mice (plasma and brain tissue); type: in vivo; details: mouse, po, 5 mg/kg p.o., male Balb/c mice; for AUC(0-t): read-out: Area under curve AUC0-t; for AUC(0-inf): read-out: Area under curve AUC0-∞; for half-life: read-out: Half-life t1/2 (converted); for MRT: read-out: Mean residence time MRT; for Tmax: read-out: Peak time tmax; for Cmax: read-out: Plasma concentration Cmax
In short: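 Compound levels in plasma and brain were measured by LC/MS/MS with an internal standard after protein precipitation with acetonitrile. Samples came from overnight-fasted male Balb/c mice given 5 mg/kg p.o., with cardiac blood drawn at 0–24 h. Pharmacokinetic parameters were then calculated.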

[2] = test system: forced-swimming mice; experiment: In vivo pharmacodynamic test in the forced swimming model in mice; details: ICR mice; for Mean (immobility, %): 100*floating time/240 s; for Immobility time during the latter four minutes compared with that of the model group: forced swimming
Method: The antidepressant effect of the compound was evaluated by the forced swimming model in mice.
Male ICR mice (25-35 g) were adapted in the test environment for 3 days before the forced swimming test.
According to the test design, the mice were randomly grouped on the day before the test according to body weight, with 12 mice in each group. Before the test, the compounds of each example were administered intragastrically according to the Tmax thereof in the brain in mice pharmacokinetic test as follows: • 1) Model group (0.5% CMC-Na-1% Tween 80 solution, p.o., 10 mL/kg); • 2) Compounds of Example 2, Example 3, Example 5, Example 6, Example 9, Examples 59-63, Examples 71-73, Example 103, Example 135, Example 137, Example 145 and Example 146 (10 mg/kg, p.o., 10 mL/kg); Example 13 and Example 74 (5 mg/kg, p.o., 5 mL/kg).
When being administered, the compounds of each example were suspended in 0.5% CMC-Na+1% Tween 80 solution to the desired concentration.
0.5-1 hour after administration, ICR mice were placed in a forced swimming device (transparent glass drum (water depth 18 cm, water temperature 25-26° C.), one mouse per tank) and forced to swim for 6 minutes. The forced swimming device recorded the floating time of the ICR mice during the entire 6 minutes, and the data of the latter four minutes were used for data analysis. The mice were taken out immediately after the swimming test, wiped dry and put back in their original cages.
Note: The criterion for determining the immobility time is that the mouse stops struggling in water and floats, and there are only slight limb movements to keep the head floating on the water.
3.4 Data Analysis Floating time percentage=100*floating time/240 s.

[3] = test system: PTZ-induced epilepsy model in CD-1 mice; experiment: In vivo pharmacodynamic test in the PTZ-induced epilepsy model in mice; details: dose 3 mpk p.o., PTZ 120 mg/kg s.c., 30 min observation
Method: The PTZ-induced epilepsy model in CD-1 mice was established, and the antiepileptic effect of the compounds of Example 3, Example 60, Example 61 and Example 74 was evaluated using this model.
50 male CD-1 mice were purchased from Beijing Vital River Laboratory Animal Technology Co. Ltd. The test animals were adapted at the animal room in the third building of Shanghai ChemPartner Co., Ltd for 7 days before the test. The average body weight of the animals on the test day was 32.2±0.2 grams. Feeding environment: 5 animals/cage, room temperature 23±2° C., 12/12 hours of light and dark cycle, free acess to food and water.
4.2.1 Test Equipments • 1 ml sterile disposable syringe with needle (purchased from Zhejiang Kangdelai Medical Devices Co., Ltd.) • Pipette: Eppendorf Research Plus (100-1000 L) • Vortex mixer: Kylin-Bell Vortex 5 • Ultrasonic instrument: JL-360 ultrasonic cleaner • Balance: METTLER TOLEDO™ XS204 precision balance (note: METTLER TOLEDO™ is a kind of balance used in labs and industry) • Balance: METTLER TOLEDO™ XS6002S electronic balance (note: METTLER TOLEDO™ is a kind of balance used in labs and industry) • Plexiglass box: 25 cm length*15 cm width*15 cm height with one opaque side wall, custom made by Suzhou Fengshi Laboratory Animal Equipment Co., Ltd • 3-channel timer: Oregon/Model NO.WB-388. 4.2.2 Test Animal Grouping • 1) Vehicle/PTZ: 0.5% CMC-Na+1% Tween-80 (10 ml/kg, p.o.), administered 0.5 hr before the PTZ administration; PTZ ([…], s.c.), administered before the test; • 2) 3 mg/kg of the compounds of Examples/PTZ: the compounds of Example 3, Example 60, Example 61 and Example 74 (3 mg/kg, 10 ml/kg, p.o.), administered 0.5 hr before the PTZ administration; PTZ ([…], s.c.), administered before the test. 4.3 Experimental Procedures 4.3.1 Solvent Formulation 1) 0.5% CMC-Na+1% Tween-80 (Administration Volume: 10 mL/Kg):
4.4 Adaptation to the Environment
The mice were randomly grouped, marked and weighed; 10 mice per group. The test compound was administered orally at an administration volume of 10 mL/kg 30-60 minutes before the PTZ administration.
PTZ (120 mg/kg) was administrated subcutaneously before the test observation, and this time point was recorded as the observation start point; after the administration of PTZ, the animal was immediately placed in the observation box and observed for 30 minutes, and the followings were recorded: a) the incubation period of the first clonic seizure, b) the incubation period of the first generalized tonic seizure, c) the number of clonic seizures, d) the number of generalized tonic seizures, e) the time when the animal died.
All measurement data were expressed as Mean±SEM, and analysed with Prism 6.0 statistical software.

## C[C@@]1(O)CC[C@H]2[C@H](CC[C@@H]3[C@@H]2CC[C@@]2(C)[C@H]3[C@H](C3CC3)C[C@@H]2C(=O)Cn2nccn2)C1 [Example 73, 1-((3R,5R,8R,9R,10S,13S,14S,15S,17S)-15-Cyclopropyl-3-hydroxy-3,13-dimethylhexadecahydro-1H-cyclopenta[a]phenanthren-17-yl)-2-(2H-1,2,3-triazol-2-yl)ethan-1-one]
[1]; brain tissue
  AUC(0-t): 1100 ng·h/mL
  AUC(0-inf): 1120 ng·h/mL
  half-life: 1.31 h
  MRT: 1.91 h
  Tmax: 0.5 h
  Cmax: 636 ng/mL
[1]; plasma
  AUC(0-t): 2430 ng·h/mL
  AUC(0-inf): 2480 ng·h/mL
  half-life: 1.4 h
  MRT: 2.06 h
  Tmax: 0.5 h
  Cmax: 1300 ng/mL
[2]; dose 10 mpk p.o.
  Mean (immobility, %): 29.57%
[2]
  Immobility time during the latter four minutes compared with that of the model group: significantly different

## C[C@@H]1C[C@H](C(=O)Cn2nccn2)[C@@]2(C)CC[C@H]3[C@@H](CC[C@@H]4C[C@](C)(O)CC[C@@H]43)[C@H]12 [Example 61, 1-((3R,5R,8R,9R,10S,13S,14S,15R,17S)-3-Hydroxy-3,13,15-trimethylhexadecahydro-1H-cyclopenta[a]phenanthren-17-yl)-2-(2H-1,2,3-triazol-2-yl)ethan-1-one]
[1]; brain tissue
  AUC(0-t): 657 ng·h/mL
  AUC(0-inf): 676 ng·h/mL
  half-life: 3.95 h
  MRT: 1.41 h
  Tmax: 0.5 h
  Cmax: 711 ng/mL
[1]; plasma
  AUC(0-t): 588 ng·h/mL
  AUC(0-inf): 605 ng·h/mL
  half-life: 3.27 h
  MRT: 1.48 h
  Tmax: 0.5 h
  Cmax: 525 ng/mL
[2]; dose 10 mpk p.o.
  Mean (immobility, %): 35.75%
[2]
  Immobility time during the latter four minutes compared with that of the model group: significantly different
[3]
  Incubation period of the clonic seizure, Mean ± SEM: 841.4 ± 179.8 s
  Incubation period of the generalized tonic seizure, Mean: 1497.4 ± 124.3 s
  Mortality rate: 40%
  Number of clonic seizures, Mean: 1.9 ± 0.4
  Number of generalized tonic seizures, Mean: 0.5 ± 0.2
  Time when the animal died, Mean: 1573.1 ± 117.9 s

## Cc1nnn(CC(=O)[C@H]2C[C@@H](C3CC3)[C@H]3[C@@H]4CC[C@@H]5C[C@](C)(O)CC[C@@H]5[C@H]4CC[C@@]32C)n1 [Example 74, 1-((3R,5R,8R,9R,10S,13S,14S,15S,17S)-15-Cyclopropyl-3-hydroxy-3,13-dimethylhexadecahydro-TH-cyclopenta[a]phenanthren-17-yl)-2-(5-methyl-2H-tetrazol-2-yl)ethan-1-one]
[1]; brain tissue
  AUC(0-t): 5850 ng·h/mL
  AUC(0-inf): 6510 ng·h/mL
  half-life: 2.28 h
  MRT: 3.82 h
  Tmax: 1 h
  Cmax: 1520 ng/mL
[1]; plasma
  AUC(0-t): 7160 ng·h/mL
  AUC(0-inf): 8600 ng·h/mL
  half-life: 3.06 h
  MRT: 4.59 h
  Tmax: 0.5 h
  Cmax: 2140 ng/mL
[2]; dose 5 mpk p.o.
  Mean (immobility, %): 38.00%
[3]
  Incubation period of the clonic seizure, Mean ± SEM: 635.4 ± 149.9 s
  Incubation period of the generalized tonic seizure, Mean: 1506.8 ± 149.8 s
  Mortality rate: 30%
  Number of clonic seizures, Mean: 1.8 ± 0.3
  Number of generalized tonic seizures, Mean: 0.3 ± 0.2
  Time when the animal died, Mean: 1618.1 ± 121.3 s

## C[C@@]1(O)CC[C@H]2[C@H](CC[C@@H]3[C@@H]2CC[C@@]2(C)[C@H]3[C@H](C3CC3)C[C@@H]2C(=O)Cn2ccc(C#N)n2)C1 [Example 72, 1-(2-((3R,5R,8R,9R,10S,13S,14S,15S,17S)-15-Cyclopropyl-3-hydroxy-3,13-dimethylhexadecahydro-1H-cyclopenta[a]phenanthren-17-yl)-2-oxoethyl)-1H-pyrazole-3-carbonitrile]
[1]; brain tissue
  AUC(0-t): 2050 ng·h/mL
  AUC(0-inf): 2240 ng·h/mL
  half-life: 2.12 h
  MRT: 3.17 h
  Tmax: 0.5 h
  Cmax: 724 ng/mL
[1]; plasma
  AUC(0-t): 2970 ng·h/mL
  AUC(0-inf): 2970 ng·h/mL
  half-life: 2.79 h
  MRT: 3.71 h
  Tmax: 0.5 h
  Cmax: 1150 ng/mL
[2]; dose 10 mpk p.o.
  Mean (immobility, %): 35.74%
[2]
  Immobility time during the latter four minutes compared with that of the model group: significantly different
